In ChEMBL document CHEMBL3885881, “DrugMatrix”:

Species on record: Rattus norvegicus
Assay: DrugMatrix - Regimen: Daily Repeat
Assay type: toxicity, organism-based, Sprague-Dawley
Design: regimen Daily Repeat, gender Male, age 6-8 weeks
Settings: in vivo, po, route oral GAVAGE, vehicle .5 % CMC; for ABSOLUTE BASOPHIL / ABSOLUTE EOSINOPHIL / ABSOLUTE LYMPHOCYTE / ABSOLUTE MONOCYTE / BASOPHIL / ERYTHROCYTE COUNT / HEMATOCRIT / HEMOGLOBIN / LYMPHOCYTE / MEAN CORPUSCULAR HEMOGLOBIN / MEAN CORPUSCULAR HEMOGLOBIN CONCENTRATION / MEAN CORPUSCULAR VOLUME / NEUTROPHIL / NUCLEATED RED BLOOD CELLS / PLATELET COUNT / ABSOLUTE SEGMENTED NEUTROPHIL: tissue Blood; for ALANINE AMINOTRANSFERASE / ALKALINE PHOSPHATASE / ASPARTATE AMINOTRANSFERASE / BLOOD UREA NITROGEN / CARBON DIOXIDE / CHOLESTEROL / CREATINE PHOSPHOKINASE / CREATININE / GLUCOSE / LACTATE DEHYDROGENASE / LIPASE / PHOSPHORUS / POTASSIUM / SODIUM / TOTAL BILIRUBIN / TOTAL PROTEIN: tissue Plasma
[1] = 0 mg/kg, 72 h, dose level Control, time 3 day
[2] = 0 mg/kg, 120 h, dose level Control, time 5 day
[3] = 0.06 mg/kg, 72 h, dose level Low, time 3 day

CC(=O)CC(c1ccccc1)c1c(O)c2ccccc2oc1=O (stereo not given) [WARFARIN]
ABSOLUTE BASOPHIL [1]: 0 CELLS/uL
ABSOLUTE EOSINOPHIL [1]: 284.5 CELLS/uL
ABSOLUTE LYMPHOCYTE [1]: 11670.5 CELLS/uL
ABSOLUTE MONOCYTE [1]: 420.83 CELLS/uL
BASOPHIL [1]: 0%
ERYTHROCYTE COUNT [1]: 5.38 x10E6/uL
HEMATOCRIT [1]: 34.05%
HEMOGLOBIN [1]: 12.75 G/DL
LYMPHOCYTE [1]: 88.33%
MEAN CORPUSCULAR HEMOGLOBIN [1]: 23.73 pg
MEAN CORPUSCULAR HEMOGLOBIN CONCENTRATION [1]: 37.43 G/DL
MEAN CORPUSCULAR VOLUME [1]: 63.4 fL
NEUTROPHIL [1]: 7.17%
NUCLEATED RED BLOOD CELLS [1]: 0 /100WBC
PLATELET COUNT [1]: 1184.67 x10E3/uL
ALANINE AMINOTRANSFERASE [1]: 45.33 u/L
ALKALINE PHOSPHATASE [1]: 388.83 u/L
ASPARTATE AMINOTRANSFERASE [1]: 84.83 u/L
BLOOD UREA NITROGEN [1]: 15.5 mg/dL
CARBON DIOXIDE [1]: 27 mmol/L
CHOLESTEROL [1]: 76.67 mg/dL
CREATINE PHOSPHOKINASE [1]: 301 u/L
CREATININE [1]: 0.21 mg/dL
GLUCOSE [1]: 168.83 mg/dL
LACTATE DEHYDROGENASE [1]: 294.83 u/L
LIPASE [1]: 9.8 u/L
PHOSPHORUS [1]: 13.25 mg/dL
POTASSIUM [1]: 6.41 MEQ/L
SODIUM [1]: 143.72 MEQ/L
TOTAL BILIRUBIN [1]: 0.22 mg/dL
TOTAL PROTEIN [1]: 5.98 G/DL
ABSOLUTE BASOPHIL [2]: 0 CELLS/uL
ABSOLUTE EOSINOPHIL [2]: 190.67 CELLS/uL
ABSOLUTE LYMPHOCYTE [2]: 12549.5 CELLS/uL
ABSOLUTE MONOCYTE [2]: 276 CELLS/uL
ABSOLUTE SEGMENTED NEUTROPHIL [2]: 1067.17 CELLS/uL
BASOPHIL [2]: 0%
ERYTHROCYTE COUNT [2]: 5.66 x10E6/uL
HEMATOCRIT [2]: 35.92%
HEMOGLOBIN [2]: 13.65 G/DL
LYMPHOCYTE [2]: 89%
MEAN CORPUSCULAR HEMOGLOBIN [2]: 24.12 pg
MEAN CORPUSCULAR HEMOGLOBIN CONCENTRATION [2]: 38.03 G/DL
MEAN CORPUSCULAR VOLUME [2]: 63.47 fL
NEUTROPHIL [2]: 7.67%
NUCLEATED RED BLOOD CELLS [2]: 0.17 /100WBC
PLATELET COUNT [2]: 1251.67 x10E3/uL
ALANINE AMINOTRANSFERASE [2]: 43.33 u/L
ALKALINE PHOSPHATASE [2]: 365.67 u/L
ASPARTATE AMINOTRANSFERASE [2]: 83.67 u/L
BLOOD UREA NITROGEN [2]: 18.17 mg/dL
CARBON DIOXIDE [2]: 28.67 mmol/L
CHOLESTEROL [2]: 71.5 mg/dL
CREATINE PHOSPHOKINASE [2]: 284.5 u/L
CREATININE [2]: 0.21 mg/dL
GLUCOSE [2]: 161.67 mg/dL
LACTATE DEHYDROGENASE [2]: 259.67 u/L
LIPASE [2]: 9.5 u/L
PHOSPHORUS [2]: 12.45 mg/dL
POTASSIUM [2]: 6.49 MEQ/L
SODIUM [2]: 144.25 MEQ/L
TOTAL BILIRUBIN [2]: 0.2 mg/dL
TOTAL PROTEIN [2]: 6.1 G/DL
ABSOLUTE BASOPHIL [3]: 0 CELLS/uL
ABSOLUTE EOSINOPHIL [3]: 18.67 CELLS/uL
ABSOLUTE LYMPHOCYTE [3]: 6429.67 CELLS/uL
ABSOLUTE MONOCYTE [3]: 120.33 CELLS/uL
ABSOLUTE SEGMENTED NEUTROPHIL [3]: 364.67 CELLS/uL
BASOPHIL [3]: 0%
ERYTHROCYTE COUNT [3]: 5.26 x10E6/uL
HEMATOCRIT [3]: 33.97%
HEMOGLOBIN [3]: 12.8 G/DL
LYMPHOCYTE [3]: 92.67%
MEAN CORPUSCULAR HEMOGLOBIN [3]: 24.33 pg
MEAN CORPUSCULAR HEMOGLOBIN CONCENTRATION [3]: 37.67 G/DL
MEAN CORPUSCULAR VOLUME [3]: 64.6 fL
NEUTROPHIL [3]: 5.33%
NUCLEATED RED BLOOD CELLS [3]: 0 /100WBC
PLATELET COUNT [3]: 1234.33 x10E3/uL
ALANINE AMINOTRANSFERASE [3]: 50 u/L
ALKALINE PHOSPHATASE [3]: 307.67 u/L
ASPARTATE AMINOTRANSFERASE [3]: 80.67 u/L
BLOOD UREA NITROGEN [3]: 15.33 mg/dL
CARBON DIOXIDE [3]: 28.67 mmol/L
CHOLESTEROL [3]: 72.67 mg/dL
CREATINE PHOSPHOKINASE [3]: 222.67 u/L
CREATININE [3]: 0.21 mg/dL
GLUCOSE [3]: 142.33 mg/dL
LACTATE DEHYDROGENASE [3]: 174.67 u/L
LIPASE [3]: 9.5 u/L
PHOSPHORUS [3]: 12.87 mg/dL
POTASSIUM [3]: 6.97 MEQ/L
SODIUM [3]: 146.9 MEQ/L
TOTAL BILIRUBIN [3]: 0.23 mg/dL
TOTAL PROTEIN [3]: 6.03 G/DL
